Measured values taken from patent US11524963B2, “Substituted pyrazolo[3,4-d]pyrimidines as RET kinase inhibitors” (Array Biopharma Inc., priority 2018, dated 2022).
Positions count from the first letter of the chain named.

Experiments:
RET kinase M918T = RET kinase M918T (Homo sapiens, UniProt P07949, M918T); assay: RET Enzyme Assay (HTRF KinEASE-TK), M918T; assay type: biochemical
RET kinase Wild Type = RET kinase Wild Type (Homo sapiens, UniProt P07949); assay: RET Enzyme Assay (HTRF KinEASE-TK), Wild Type; assay type: biochemical
RET kinase G810S = RET kinase G810S (Homo sapiens, UniProt P07949, G810S); assay: RET Enzyme Assay (HTRF KinEASE-TK), G810S; assay type: biochemical
RET kinase G810R = RET kinase G810R (Homo sapiens, UniProt P07949, G810R); assay: RET Enzyme Assay (HTRF KinEASE-TK), G810R; assay type: biochemical
[1] = biological target: T1, HEK-293 cells expressing a Kif5b-RET fusion protein (Homo sapiens, UniProt P07949); assay: RET Cell Assay (phospho-RET Tyr1062); assay type: cell-based; settings: 1 hour with compound, phospho-RET(Tyr1062) normalized to GAPDH, read-out: KIF5B-RET pTYR1062 Cell IC50
T1 construct: expressed in transfected cells; host or cells: HEK-293; the other entry of the earlier key: KIF5B (P33176, Kinesin-1 heavy chain)
T1 sequence (P07949 713-1063 limits assumed): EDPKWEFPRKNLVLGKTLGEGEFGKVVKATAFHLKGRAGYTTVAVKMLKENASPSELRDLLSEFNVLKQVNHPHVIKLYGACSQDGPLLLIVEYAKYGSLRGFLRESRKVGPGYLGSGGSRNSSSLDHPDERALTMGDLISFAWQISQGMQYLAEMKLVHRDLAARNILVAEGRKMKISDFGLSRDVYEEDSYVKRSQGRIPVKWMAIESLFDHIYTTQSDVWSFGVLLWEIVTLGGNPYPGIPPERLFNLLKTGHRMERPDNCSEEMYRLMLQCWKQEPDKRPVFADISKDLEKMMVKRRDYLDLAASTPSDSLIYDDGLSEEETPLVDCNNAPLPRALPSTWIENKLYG
Method: (§1) The cellular potency of compounds inhibiting RET kinase were determined in HEK-293 cells expressing a Kif5b-RET fusion protein. Briefly, HEK-293 cells expressing a Kif5b-RET fusion protein were plated at 50K cells/well in 96 well poly-D-Lysine coated plates the day prior to the assay. The cells were incubated for 1 hour with test compound in DMEM (Dulbecco's Modified Eagle Medium) at a final DMSO concentration of 0.5%. […] After 1 hour the media was removed, the cells were fixed with 3.8% formaldehyde for 20 min, washed with PBS, and permeabilized for 10 min with 100% methanol. […] All antibodies were diluted in LI-COR Block containing 0.05% Tween. The plates were washed with PBS-0.05% Tween20, 100 μL PBS is added to each well, and the plates were read on a LI-COR Aerius fluorescent plate reader. The phospho-RET signal was normalized to the GAPDH signal. 100 POC (percent of control) was determined using no test compounds and 0 POC was determined using 1 μM of a control inhibitor. The POC values were fit to a 4 parameter logistic curve. The IC50 value is the point where the curve crosses 50 POC.

RET kinase V804M = RET kinase V804M (Homo sapiens, UniProt P07949, V804M); assay: RET Enzyme Assay (HTRF KinEASE-TK), V804M; assay type: biochemical
[2] = biological target: T2, HEK-293 cells expressing a G810R mutant RET Kif5b-RET fusion protein (Homo sapiens, UniProt P07949, G810R); assay: RET G810R Mutant Cell Assay (phospho-RET Tyr1062); assay type: cell-based; settings: 1 hour with compound, phospho-RET(Tyr1062) normalized to GAPDH
T2 construct: expressed in transfected cells; host or cells: HEK-293; the other entry of the earlier key: KIF5B (P33176, Kinesin-1 heavy chain)
T2 sequence (P07949 713-1063 G810R limits assumed): T1 sequence (P07949 713-1063 limits assumed) with G98R
Method: RET G810R and G810S Mutant Cell Assay
as §1, with “expressing a G810R or G810S mutant RET Kif5b-RET fusion” for “expressing a Kif5b-RET fusion”, “μL PBS was added to” for “μL PBS is added to”, “POC values are fit to” for “POC values were fit to”

Chain of RET kinase V804M (P07949 29-1114 V804M): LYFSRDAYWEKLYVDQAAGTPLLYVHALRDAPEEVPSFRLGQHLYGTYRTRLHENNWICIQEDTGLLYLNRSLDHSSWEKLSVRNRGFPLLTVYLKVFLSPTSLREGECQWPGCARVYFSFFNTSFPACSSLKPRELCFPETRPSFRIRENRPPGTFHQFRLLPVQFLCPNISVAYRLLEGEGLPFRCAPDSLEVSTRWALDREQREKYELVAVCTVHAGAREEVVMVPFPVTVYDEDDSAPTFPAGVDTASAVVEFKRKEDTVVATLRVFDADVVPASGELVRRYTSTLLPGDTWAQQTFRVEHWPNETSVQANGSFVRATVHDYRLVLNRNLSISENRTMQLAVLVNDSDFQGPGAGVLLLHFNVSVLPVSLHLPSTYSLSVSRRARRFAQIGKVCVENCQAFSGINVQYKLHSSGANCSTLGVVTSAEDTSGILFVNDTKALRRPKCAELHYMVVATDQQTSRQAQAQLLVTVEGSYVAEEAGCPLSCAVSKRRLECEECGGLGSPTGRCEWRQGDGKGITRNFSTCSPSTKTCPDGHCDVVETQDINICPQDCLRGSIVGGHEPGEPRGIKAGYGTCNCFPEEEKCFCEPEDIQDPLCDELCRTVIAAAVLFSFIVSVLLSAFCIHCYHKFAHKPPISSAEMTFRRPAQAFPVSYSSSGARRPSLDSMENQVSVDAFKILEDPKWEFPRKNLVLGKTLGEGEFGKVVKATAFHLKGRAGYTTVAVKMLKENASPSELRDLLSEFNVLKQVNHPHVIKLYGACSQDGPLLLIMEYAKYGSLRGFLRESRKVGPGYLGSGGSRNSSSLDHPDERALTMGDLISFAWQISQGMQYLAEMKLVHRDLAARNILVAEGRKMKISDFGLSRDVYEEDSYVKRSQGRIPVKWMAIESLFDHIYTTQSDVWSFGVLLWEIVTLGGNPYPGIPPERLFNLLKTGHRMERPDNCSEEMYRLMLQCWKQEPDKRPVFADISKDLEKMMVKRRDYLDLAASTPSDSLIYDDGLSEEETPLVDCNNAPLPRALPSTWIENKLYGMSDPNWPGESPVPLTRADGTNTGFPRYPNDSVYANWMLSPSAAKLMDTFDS
Chain of RET kinase G810S (P07949 29-1114 G810S): as the sequence (P07949 29-1114 V804M) above, with M776V, G782S counted along it
Chain of RET kinase M918T (P07949 29-1114 M918T): as the sequence (P07949 29-1114 V804M) above, with M776V, M890T counted along it
Chain of RET kinase G810R (P07949 29-1114 G810R): as the sequence (P07949 29-1114 V804M) above, with M776V, G782R counted along it
Chain of RET kinase Wild Type (P07949 29-1114): as the sequence (P07949 29-1114 V804M) above, with M776V counted along it

| SMILES | IC50 (RET kinase M918T) [nM] | IC50 (RET kinase Wild Type) [nM] | IC50 (RET kinase G810S) [nM] | IC50 (RET kinase G810R) [nM] | IC50 [1] [nM] | IC50 (RET kinase V804M) [nM] | IC50 [2] [nM] |
| --- | --- | --- | --- | --- | --- | --- | --- |
| CC(C)n1nc(-c2noc(C3CC3)c2-c2ncccn2)c2c(N)ncnc21 [Example 11, 3-(5-cyclopropyl-4-(pyrimidin-2-yl)isoxazol-3-yl)-1-isopropyl-1H-pyrazolo[3,4-d]pyrimidin-4-amine] | 1.2 | 1.5 | 4.9 | 3.5 | 86 | 4.4 | – |
| CC(C)n1nc(-c2noc(C3CC3)c2-c2ccncc2)c2c(N)ncnc21 [Example 8, 3-(5-cyclopropyl-4-(pyridin-4-yl)isoxazol-3-yl)-1-isopropyl-1H-pyrazolo[3,4-d]pyrimidin-4-amine] | 3.9 | 2.9 | 20.6 | 3.9 | – | 29 | – |
| Cc1cc(-c2nn(C(C)C)c3ncnc(N)c23)n(C2CCCCO2)n1 (centres unmarked) [Example 21, 1-isopropyl-3-(3-methyl-1-(tetrahydro-2H-pyran-2-yl)-1H-pyrazol-5-yl)-1H-pyrazolo[3,4-d]pyrimidin-4-amine] | 4.1 | 2.1 | 17.9 | 19.5 | 36 | 260 | 342 |
| CC(C)n1nc(-c2noc([C@@H](C)O)c2-c2ccccn2)c2c(N)ncnc21 [Example 18, (R)-1-(3-(4-amino-1-isopropyl-1H-pyrazolo[3,4-d]pyrimidin-3-yl)-4-(pyridin-2-yl)isoxazol-5-yl)ethan-1-ol] | 1 | 1.1 | 4.3 | 4.4 | 42 | 3.1 | – |
| CC(C)n1nc(-c2noc(C3CC3)c2-c2ccccc2)c2c(N)ncnc21 [Example 6, 3-(5-cyclopropyl-4-phenylisoxazol-3-yl)-1-isopropyl-1H-pyrazolo[3,4-d]pyrimidin-4-amine] | 4.5 | 4.7 | 26.2 | 10 | 488 | 23.9 | – |
| CC(C)n1nc(-c2noc(C3CC3)c2-c2cccnc2)c2c(N)ncnc21 [Example 7, 3-(5-cyclopropyl-4-(pyridin-3-yl)isoxazol-3-yl)-1-isopropyl-1H-pyrazolo[3,4-d]pyrimidin-4-amine] | 8.7 | 7.1 | 38.9 | 8.4 | – | 52.2 | – |
| C=Cc1cc(-c2nn(C(C)C)c3ncnc(N)c23)n(C2CCCCO2)n1 (centres unmarked) [Example 22, 1-isopropyl-3-(1-(tetrahydro-2H-pyran-2-yl)-3-vinyl-1H-pyrazol-5-yl)-1H-pyrazolo[3,4-d]pyrimidin-4-amine] | 3 | 2.3 | 13 | 16.5 | 21 | 307 | 214 |
| CC(C)n1nc(-c2cc(C3CC3)nn2C2CCCCO2)c2c(N)ncnc21 (centres unmarked) [Example 19, 3-(3-cyclopropyl-1-(tetrahydro-2H-pyran-2-yl)-1H-pyrazol-5-yl)-1-isopropyl-1H-pyrazolo[3,4-d]pyrimidin-4-amine] | 6.1 | 3.9 | 24.1 | 28.9 | 40 | 418 | 628 |

The remaining lines, values ahead:

| IC50 (RET kinase M918T) [nM] | IC50 (RET kinase Wild Type) [nM] | IC50 (RET kinase G810S) [nM] | IC50 (RET kinase G810R) [nM] | IC50 [1] [nM] | IC50 (RET kinase V804M) [nM] | IC50 [2] [nM] | SMILES |
| --- | --- | --- | --- | --- | --- | --- | --- |
| 1.8 | 2.1 | 11.7 | 3.8 | 263 | 5.7 | – | CC(C)n1nc(-c2noc(C3CC3)c2Br)c2c(N)ncnc21 [Example 1, 3-(4-bromo-5-cyclopropylisoxazol-3-yl)-1-isopropyl-1H-pyrazolo[3,4-d]pyrimidin-4-amine] |
| 3.2 | 2.7 | 11.7 | 7.1 | 105 | 20.5 | – | CC(C)n1nc(-c2noc(C3CC3)c2C2=CCC(=O)CC2)c2c(N)ncnc21 [Example 5, 4-(3-(4-amino-1-isopropyl-1H-pyrazolo[3,4-d]pyrimidin-3-yl)-5-cyclopropylisoxazol-4-yl)cyclohex-3-en-1-one] |
| 7.6 | 5.2 | 37.3 | 13.5 | – | 28.8 | – | CC(C)n1nc(-c2noc(C3CC3)c2C2=CCOCC2)c2c(N)ncnc21 [Example 4, 3-(5-cyclopropyl-4-(3,6-dihydro-2H-pyran-4-yl)isoxazol-3-yl)-1-isopropyl-1H-pyrazolo[3,4-d]pyrimidin-4-amine] |
| 1.1 | 1.2 | 4.4 | 4.4 | 75 | 2.1 | 247 | CC(C)n1nc(-c2noc(C3CC3)c2-c2ccn(C)n2)c2c(N)ncnc21 [Example 2, 3-(5-cyclopropyl-4-(1-methyl-1H-pyrazol-3-yl)isoxazol-3-yl)-1-isopropyl-1H-pyrazolo[3,4-d]pyrimidin-4-amine] |
| 2.2 | 1.5 | 13.6 | 4.1 | 199 | 13.8 | – | CC(C)n1nc(-c2noc(C3CC3)c2C2=COCCC2)c2c(N)ncnc21 [Example 10, 3-(5-cyclopropyl-4-(3,4-dihydro-2H-pyran-5-yl)isoxazol-3-yl)-1-isopropyl-1H-pyrazolo[3,4-d]pyrimidin-4-amine] |
| 1.5 | 1.2 | 4.9 | 4.1 | 35 | 7 | 86 | CC(C)n1nc(-c2noc(C3CC3)c2C2=CCC(O)CC2)c2c(N)ncnc21 (centres unmarked) [Example 14, 4-(3-(4-amino-1-isopropyl-1H-pyrazolo[3,4-d]pyrimidin-3-yl)-5-cyclopropylisoxazol-4-yl)cyclohex-3-en-1-ol] |
| 0.8 | 0.7 | 3.7 | 2.2 | 68 | 7.5 | 264 | CC(C)n1nc(-c2noc(C3CC3)c2C2CCOCC2)c2c(N)ncnc21 [Example 17, 3-(5-cyclopropyl-4-(tetrahydro-2H-pyran-4-yl)isoxazol-3-yl)-1-isopropyl-1H-pyrazolo[3,4-d]pyrimidin-4-amine] |
| 4.1 | 5.3 | 24.3 | 11.4 | – | 15.1 | – | CC(C)n1nc(-c2noc(C3CC3)c2I)c2c(N)ncnc21 [Example 12, 3-(5-cyclopropyl-4-iodoisoxazol-3-yl)-1-isopropyl-1H-pyrazolo[3,4-d]pyrimidin-4-amine] |
